This note sets out measurements from patent US12312641B2, “Sensitivity marker for antibody-drug conjugate” (priority 2018, dated 2025).

Where two headings read alike, the source gives them in different places.

Holding throughout (type): cell-based
Assay [1] relates to Human pharyngeal cancer cell line FaDu. Put plainly: Cell proliferation inhibition test upon SLFN11 knockdown, FaDu. As to conditions: for Cell proliferation inhibitory effect upon SLFN11 knockdown: FaDu cell lines, SLFN11 siRNA vs Non-targeting Control; for Fold change (SLFN11/Non-targeting Control): ratio of IC50. The procedure:
(§1) Human pharyngeal cancer cell line FaDu was obtained from ATCC and used for evaluation. FaDu cells suspended at 2×10^3 cells/mL in a MEM medium containing a non-essential amino acid solution, a pyruvic acid solution and 10% bovine fetal serum were seeded in a 10 cm cell culture dish at 10 mL/dish. Twenty-four hours after seeding, 100 pmol of ON-TARGETplus SLFN11 siRNA (Dharmacon Inc.) or ON-TARGETplus Non-targeting Control Pool (Dharmacon Inc.) and 30 μL of Lipofectamine™ RNAiMAX Transfection Reagent (Thermo Fisher Scientific Inc.) were suspended in 1 mL of Opti-MEM medium, and the entire amount of the suspension was added to the medium. After 72 hours, the medium was removed and the dish was washed with PBS, then the cells were dissociated and recovered from the dish using 1 mL of TrypLE™ Express. The recovered cells were suspended at 5×10^4 cells/mL in a MEM medium containing a non-essential amino acid solution, a pyruvic acid solution and 10% bovine fetal serum, and were seeded in a 96-well cell culture plate at 100 μL/well. Twenty-four hours after seeding, the medium was replaced with a medium containing 100 nM, 33 nM, 11 nM, 3.7 nM, 1.2 nM, 0.41 nM, 0.13 nM, 0.045 nM, or 0 nM of compound (1) or antibody-drug conjugate (1) at 100 μL/well. The molar concentration of antibody-drug conjugate (1) was calculated by setting the average molecular weight to 150,000. Cells were all cultured at 37° C. under 5% CO2. After 72 hours from the medium replacement, ATPlite 1 step detection system (PerkinElmer Inc.) was added at 100 μL/well. The wells were incubated at room temperature for 10 minutes, then the luminescence intensity of each well was measured.
The cell growth inhibition rate(%) at each condition was calculated using the following calculation formula: Cell growth inhibition rate (%)=100×(1−T/C) • T: Average luminescence intensity of each well to which specimen was added • C: Average luminescence intensity of each well to which 0 nM specimen was added
(§2) The 50% inhibitory concentration at each condition was calculated by fitting to the following calculation formula: Cell viability (%)=(Emax−Emin)×Specimen concentration^γ/((Emax−50)/(50−Emin)×IC50^γ+Specimen concentration^γ)+Emin • Emax: maximum cell growth inhibition rate (%) • Emin: minimum cell growth inhibition rate (%) • IC50: 50% inhibitory concentration • γ: Hill coefficient
(§3) The fitting to the calculation formula was performed using SAS Systems Release 9.2 (SAS Institute Inc.).

Assay [2] has as its system Human lung cancer cell line Calu-3. Put plainly: Cell proliferation inhibition test upon SLFN11 knockdown, Calu-3. The procedure:
as §1, with “lung” for “pharyngeal”, “Calu-3” for “FaDu”, “and” for “and were”
(§4) The cell growth inhibition rate (%) at each condition was calculated using the following calculation formula: Cell growth inhibition rate (%)=100×(1−T/C) • T: Average luminescence intensity of each well to which specimen was added • C: Average luminescence intensity of each well to which 0 nM specimen was added
as §2, §3

Assay [3] concerns Human breast cancer cell line HCC38. Put plainly: Cell proliferation inhibition test upon SLFN11 knockdown, HCC38. As to conditions: for Cell proliferation inhibitory effect upon SLFN11 knockdown: HCC38 cell lines, SLFN11 siRNA vs Non-targeting Control; for Fold change (SLFN11/Non-targeting Control): ratio of IC50. The procedure:
as §1, with “breast” for “pharyngeal”, “HCC38” for “FaDu”, “2×10^5” for “2×10^3”, “RPMI-1640” for “a MEM”, “containing” for “containing a non-essential amino acid solution, a pyruvic acid solution and”, “and” for “and were”
as §4
The 50% inhibitory concentration at each condition was calculated by fitting to the following calculation formula: Cell viability (%)=(Emax−Emin)×Specimen concentration^γ/((max−50)/(50−Emin)×IC50^γ+Specimen concentration^γ)+Emin • Emax: maximum cell growth inhibition rate (%) • Emin: minimum cell growth inhibition rate (%) • IC50: 50% inhibitory concentration • γ: Hill coefficient
as §3

In the case of `CC[C@@]1(O)C(=O)OCc2c1cc1n(c2=O)Cc2c-1nc1cc(F)c(C)c3c1c2[C@@H](NC(=O)CO)CC3` [Compound (1)], the “Cell proliferation inhibitory effect upon SLFN11 knockdown” value is on record as “attenuated by SLFN11 knockdown” in assay [1]; “attenuated by SLFN11 knockdown” in assay [2] (Calu-3 cell lines, SLFN11 siRNA vs Non-targeting Control); “attenuated by SLFN11 knockdown” in assay [3]. Moreover, the “Fold change (SLFN11/Non-targeting Control)” value in assay [1] (FaDu cells) is on record as 8.6; in assay [2] (Calu-3 cells, ratio of IC50), above 4.8; in assay [3] (HCC38 cells), 2.6. The IC50 (usually the concentration at which inhibition is half-maximal) in assay [1] (Homo sapiens, FaDu, 72 h, read-out: IC50 (nM) Non-targeting Control Pool) is 3.6 nM; in assay [1] (Homo sapiens, FaDu, 72 h, read-out: IC50 (nM) SLFN11 siRNA), 30.8 nM; in assay [2] (Homo sapiens, Calu-3, 72 h, read-out: IC50 (nM) Non-targeting Control Pool), 20.9 nM; in assay [2] (Homo sapiens, Calu-3, 72 h, read-out: IC50 (nM) SLFN11 siRNA), above 100 nM; in assay [3] (Homo sapiens, HCC38, 72 h, read-out: IC50 (nM) Non-targeting Control Pool), 1.6 nM; in assay [3] (Homo sapiens, HCC38, 72 h, read-out: IC50 (nM) SLFN11 siRNA), 4.2 nM.

B1: antibody-drug conjugate (1): humanized anti-hTROP2 antibody (SEQ ID NO: 1 residues 20-470, SEQ ID NO: 2 residues 21-234) conjugated to the exatecan-derivative drug-linker via a thioether bond (conjugate, chains of the INN, looked up)
VH: QVQLVQSGAEVKKPGASVKVSCKASGYTFTTAGMQWVRQAPGQGLEWMGWINTHSGVPKYAEDFKGRVTISADTSTSTAYLQLSSLKSEDTAVYYCARSGFGSSYWYFDVWGQGTLVTVSS
VL: DIQMTQSPSSLSASVGDRVTITCKASQDVSTAVAWYQQKPGKAPKLLIYSASYRYTGVPSRFSGSGSGTDFTLTISSLQPEDFAVYYCQQHYITPLTFGQGTKLEIK
modifications: exatecan-derivative drug-linker
As to B1, the “Cell proliferation inhibitory effect upon SLFN11 knockdown” value in assay [1] and in assay [3] was “attenuated by SLFN11 knockdown” throughout. In addition, the IC50 is 42.6 nM in assay [1] (FaDu cells, Non-targeting Control Pool, 72 hours, ATPlite, read-out: IC50 (nM) Non-targeting Control Pool); above 100 nM in assay [1] (FaDu cells, SLFN11 siRNA knockdown, 72 hours, ATPlite, read-out: IC50 (nM) SLFN11 siRNA); above 100 nM in assay [2] (Calu-3 cells, Non-targeting Control Pool, 72 hours, ATPlite, read-out: IC50 (nM) Non-targeting Control Pool); above 100 nM in assay [2] (Calu-3 cells, SLFN11 siRNA knockdown, 72 hours, ATPlite, read-out: IC50 (nM) SLFN11 siRNA); 56.7 nM in assay [3] (HCC38 cells, Non-targeting Control Pool, 72 hours, ATPlite, read-out: IC50 (nM) Non-targeting Control Pool); above 100 nM in assay [3] (HCC38 cells, SLFN11 siRNA knockdown, 72 hours, ATPlite, read-out: IC50 (nM) SLFN11 siRNA). The “Fold change (SLFN11/Non-targeting Control)” value in assay [1] (FaDu cells) is above 2.3; in assay [3] (HCC38 cells) it was above 1.8.
